Species: Rattus norvegicus
Assay: Open TG-GATES - Regimen: Single
Type: toxicity, organism-based, Sprague-Dawley
Parameters: regimen Single, gender Male, age 6 weeks
Conditions: in vivo, po, route gavage; for TC / TG / TP / gamma-GTP / A/G / ALP / ALT / AST / BUN / CRE / Ca / Cl / GLC / IP / K / LDH / Na / PL / RALB: tissue Plasma; for APTT / Bas / Eos / Fbg / Hb / Ht / Lym / MCH / MCHC / MCV / Mono / Neu / PT / Plat / RBC / Ret / WBC: tissue Blood; for KIDNEY_L / KIDNEY_R / KIDNEY_TOTAL: tissue Kidney; for LIVER: tissue Liver
[1] = 300 mg/kg, 24 h, dose level Low
[2] = 1000 mg/kg, 3 h, dose level Middle
[3] = 1000 mg/kg, 6 h, dose level Middle
[4] = 1000 mg/kg, 9 h, dose level Middle
[5] = 1000 mg/kg, 24 h, dose level Middle

Molecule O=C(O)c1ccccc1Nc1ccccc1 [FENAMIC ACID] has a TC [1] of 74.8 mg/dL, a TG [1] of 88 mg/dL and a TP [1] of 5.6 g/dL. It also gave a gamma-GTP [1] of 1 IU/L, a TERMINAL_BW [2] of 208.9 g and an APTT [2] of 17.2 s. For the same molecule, the Bas [2] was 0.8%, the Eos [2] was 0.6% and the Fbg [2] was 253.8 mg/dL. The Hb [2] was 13.4 g/dL, the Ht [2] was 40.2% and the Lym [2] was 71.4%. For the same molecule, the MCH [2] was 20.5 pg, the MCHC [2] was 33.5% and the MCV [2] was 61.1 fL. For the same molecule, the Mono [2] was 2.8%, the Neu [2] was 24.4% and the PT [2] was 14.1 s. It also gave a Plat [2] of 115 x10_4/uL, an RBC [2] of 657.4 x10_4/ul and a Ret [2] of 8%. The WBC [2] was 93.3 x10_2/uL, the KIDNEY_L [2] was 0.9 g and the KIDNEY_R [2] was 0.9 g. The KIDNEY_TOTAL [2] was 1.8 g, the LIVER [2] was 7.8 g and the A/G [2] was 0.9. The ALP [2] was 1837.8 IU/L, the ALT [2] was 38.4 IU/L and the AST [2] was 75.4 IU/L. For the same molecule, the BUN [2] was 9.6 mg/dL, the CRE [2] was 0.1 mg/dL and the Ca [2] was 11 mg/dL. The Cl [2] was 105.2 meq/L, the GLC [2] was 169.2 mg/dL and the IP [2] was 10.3 mg/dL. For the same molecule, the K [2] was 4 meq/L, the LDH [2] was 71.8 IU/L and the Na [2] was 144 meq/L. The PL [2] was 96.4 mg/dL, the RALB [2] was 2.5 g/dL and the TC [2] was 49 mg/dL. It also gave a TG [2] of 37 mg/dL, a TP [2] of 5.4 g/dL and a gamma-GTP [2] of 1 IU/L. It also gave a TERMINAL_BW [3] of 203 g, an APTT [3] of 17 s and a Bas [3] of 0.8%. For the same molecule, the Eos [3] was 1%, the Fbg [3] was 286.4 mg/dL and the Hb [3] was 13.7 g/dL. It also gave a Ht [3] of 40.4%, a Lym [3] of 66.6% and an MCH [3] of 21.2 pg. For the same molecule, the MCHC [3] was 34%, the MCV [3] was 62.4 fL and the Mono [3] was 3.2%. The Neu [3] was 28.8%, the PT [3] was 14.4 s and the Plat [3] was 112.9 x10_4/uL. For the same molecule, the RBC [3] was 646.6 x10_4/ul, the Ret [3] was 7.7% and the WBC [3] was 98.8 x10_2/uL. For the same molecule, the KIDNEY_L [3] was 0.9 g, the KIDNEY_R [3] was 0.9 g and the KIDNEY_TOTAL [3] was 1.8 g. For the same molecule, the LIVER [3] was 7.4 g, the A/G [3] was 0.9 and the ALP [3] was 1734.6 IU/L. For the same molecule, the ALT [3] was 37 IU/L, the AST [3] was 77.6 IU/L and the BUN [3] was 11.4 mg/dL. For the same molecule, the CRE [3] was 0.1 mg/dL, the Ca [3] was 11.1 mg/dL and the Cl [3] was 107 meq/L. For the same molecule, the GLC [3] was 128.4 mg/dL, the IP [3] was 10.8 mg/dL and the K [3] was 3.9 meq/L. It also gave an LDH [3] of 73.4 IU/L, a Na [3] of 146.2 meq/L and a PL [3] of 105.6 mg/dL. It also gave an RALB [3] of 2.7 g/dL, a TC [3] of 53 mg/dL and a TG [3] of 37 mg/dL. For the same molecule, the TP [3] was 5.8 g/dL, the gamma-GTP [3] was 1.2 IU/L and the TERMINAL_BW [4] was 207.8 g. For the same molecule, the APTT [4] was 14.8 s, the Bas [4] was 0.4% and the Eos [4] was 0.8%. For the same molecule, the Fbg [4] was 281 mg/dL, the Hb [4] was 13.9 g/dL and the Ht [4] was 41.1%. For the same molecule, the Lym [4] was 61.8%, the MCH [4] was 21.2 pg and the MCHC [4] was 33.8%. The MCV [4] was 62.8 fL, the Mono [4] was 3% and the Neu [4] was 33.8%. For the same molecule, the PT [4] was 14.6 s, the Plat [4] was 111.6 x10_4/uL and the RBC [4] was 655.6 x10_4/ul. The Ret [4] was 8.2%, the WBC [4] was 80.5 x10_2/uL and the KIDNEY_L [4] was 1 g. For the same molecule, the KIDNEY_R [4] was 0.9 g, the KIDNEY_TOTAL [4] was 1.9 g and the LIVER [4] was 7.4 g. The A/G [4] was 0.9, the ALP [4] was 1965.8 IU/L and the ALT [4] was 44.6 IU/L. The AST [4] was 75.4 IU/L, the BUN [4] was 13.8 mg/dL and the CRE [4] was 0.1 mg/dL. For the same molecule, the Ca [4] was 11.1 mg/dL, the Cl [4] was 107.8 meq/L and the GLC [4] was 142 mg/dL. The IP [4] was 10.9 mg/dL, the K [4] was 4 meq/L and the LDH [4] was 68.6 IU/L. It also gave a Na [4] of 146.2 meq/L, a PL [4] of 102.8 mg/dL and an RALB [4] of 2.6 g/dL. For the same molecule, the TC [4] was 45.8 mg/dL, the TG [4] was 29 mg/dL and the TP [4] was 5.7 g/dL. The gamma-GTP [4] was 1 IU/L, the TERMINAL_BW [5] was 210.6 g and the APTT [5] was 14.3 s. The Bas [5] was 0.8%, the Eos [5] was 0.8% and the Fbg [5] was 388 mg/dL. The Hb [5] was 13.5 g/dL, the Ht [5] was 40.1% and the Lym [5] was 70.6%. The MCH [5] was 21.3 pg, the MCHC [5] was 33.8% and the MCV [5] was 62.9 fL. For the same molecule, the Mono [5] was 3%, the Neu [5] was 24.8% and the PT [5] was 15 s. It also gave a Plat [5] of 114.1 x10_4/uL, an RBC [5] of 637.8 x10_4/ul and a Ret [5] of 7.1%. It also gave a WBC [5] of 120.4 x10_2/uL, a KIDNEY_L [5] of 1 g and a KIDNEY_R [5] of 1 g. It also gave a KIDNEY_TOTAL [5] of 2 g, an LIVER [5] of 8.4 g and an A/G [5] of 0.9. It also gave an ALP [5] of 2284.2 IU/L, an ALT [5] of 41.2 IU/L and an AST [5] of 66 IU/L. For the same molecule, the BUN [5] was 16.4 mg/dL, the CRE [5] was 0.2 mg/dL and the Ca [5] was 11.4 mg/dL. The Cl [5] was 106.2 meq/L, the GLC [5] was 164.6 mg/dL and the IP [5] was 8.5 mg/dL. For the same molecule, the K [5] was 3.7 meq/L, the LDH [5] was 142 IU/L and the Na [5] was 145.4 meq/L. For the same molecule, the PL [5] was 104.6 mg/dL, the RALB [5] was 2.6 g/dL and the TC [5] was 47.4 mg/dL. The TG [5] was 46.2 mg/dL.

From ChEMBL document CHEMBL3885861, “Open TG-GATES”
